# Results published in US10913732B2, “Furoxans as therapies for neurodegenerative disorders” (The University of Toledo, priority 2016, dated 2021).
# “Also recorded” adds a separate entry of the source.
# Test system: Mice
# Assay: Permanent middle carotid artery occlusion (pMCAO) model of stroke
# Assay type: in vivo
# Procedure: FIGS. 9A-9E: Evaluation of the furoxan 31b. […] Latency to fall was normalized to 4 h post-infarct mean for each group and is represented as mean and s.e.m. (n=12). Analyzed using one way ANOVA analysis with Tukey's post-hoc test. […] Each of the seven tests included in the 28-point NDS was graded from 0-4, with higher scores indicating severe deficits (n=12). Compared using unpaired t-test. […] Compared using unpaired t-test. For all data, *=p<0.05, **=p<0.01, ***=p<0.001.
# 31b (20 mg/kg, i.p.) was administered once daily for 6 days beginning 12 hr after permanent MCAO (pMCAO, FIG. 9A). pMCAO was chosen rather than 2-VO because pMCAO is much simpler and more reliable (pMCAO-no loss of animals vs 2-VO˜30% lethality 7 days post-op). Ultimately, this model allowed for the provision of evidence of neuroprotective efficacy and effect on BDNF.
# Locomotor activity was evaluated by means of a rotarod task by a person blinded to the treatment groups. Mice were placed on a horizontal rod (Columbus Instruments, OH) that was made to rotate at 1 rpm with an acceleration rate of 1 rpm every 10 s until the animal fell from the rod. Each animal was tested three times per trial. All the animals were trained on the rotarod assembly prior to surgery. The duration for which each animal was able to stay on the accelerating rod was recorded as the latency to fall and registered manually. Locomotor activity was monitored 4 h before, 24 h, postsurgery and 7 days after p-MCAO surgery Grip strength was evaluated by holding the mice by tails and placing their forelimbs on a specially designed pull bar assemblies (Grip strength meter, Columbus Instruments, OH). […] Each animal was tested three times per trial at 4 h before, 2 and 7 days after p-MCAO surgery. NDS were evaluated by an optimized 28-point score pattern. A person blinded to the treatment evaluated NDS 7 days after p-MCAO; the evaluation included both sensory and motor deficits, such as body symmetry, gait, climbing, circling behavior, front limb symmetry, compulsory circling, and whisker response. Each of the seven tests included in the 28-point NDS was graded from 0 to 4, with higher scores indicating severe deficits. Animals from all the groups were euthanized 7 days after p-MCAO. Brains were dissected out and sliced into five 2-mm-thick coronal sections before incubating in 1% triphenyltetrazolium chloride (TTC) (Sigma Co., MI). The infarct area was estimated from five slices of each brain, measuring rostral and caudal sides of each individual slice in conjunction with the thickness and expressed as a percentage of the volume of the contralateral hemisphere. A person blinded to the treatment groups measured the infarct volume with the help of ImageJ software provided by NIH.
# [1] = 20 mg/kg i.p. once daily for 6 days beginning 12 hr after pMCAO, day 7
smiles,measurement,setting,value
CC1CCN(Cc2no[n+]([O-])c2-c2ccc(F)cc2)CC1 [31b],Infarct volume reduction,"20 mg/kg i.p. once daily for 6 days after pMCAO, TTC staining, p=0.11",~30%
same,BDNF levels relative to control animals,"20 mg/kg i.p. once daily for 6 days after pMCAO, WB, p=0.07",double the levels of control animals
same,"Behavioral functional recovery, neurologic deficit scoring (NDS)",[1],reverses neurologic deficit; also recorded: significant improvement
same,"Behavioral functional recovery, rotarod",[1],improves rotarod performance; also recorded: significant improvement
